Patent publication US20060211573A1, “7-(Akenylamino)triazolopyrimidines, method for the production thereof and use thereof in controlling harmful fungi and substances containing said triazolopyrimidines” (priority 2003, published 2006)

Test system: Alternaria solani
Assay: Activity against early blight of tomato caused by Alternaria solani (protective spray on tomato leaves)
Type: in vivo
Conditions: 250 ppm active compound, sprayed one day before infection, assessed after 5 days; untreated plants 100% infected
Procedure: The active compounds were prepared, separately or together, as a stock solution with 0.25% by weight of active compound in acetone or DMSO. 1% by weight of the emulsi-fier Uniperol® EL (wetting agent with an emulsifying and dispersing action based on ethoxylated alkylphenols) was added to this solution and appropriately diluted with water to the desired concentration. Leaves of pot plants of the variety “Grope Fleischtomate St. Pierre” were sprayed to runoff point with an aqueous suspension in the active compound concentration given below. On the following day, the leaves were infected with an aqueous suspension of spores of Alternaria solani in 2% Biomalz solution with a concentration of 0.17×10^6 spores/ml. The plants were subsequently placed in a chamber saturated with water vapor at temperatures between 20 and 22° C. After 5 days, leaf infection in the untreated but infected control plants had so extensively developed that the infection could be visually determined in %.

C=CC(C)Nc1c(-c2c(F)cc(F)cc2F)c(Cl)nc2ncnn12 (stereo not shown) [I-1, 5-chloro-6-(2,4,6-trifluorophenyl)-7-(1-methyl-2-propen-1-yl)amino[1,2,4]triazolo[1,5-a]pyrimidine]
leaf infection, visually determined in %: no infection
